Assays:
[1] = tested on: Female rats rendered hypertensive (unilateral nephrectomy, deoxycorticosterone acetate); test: Anti-hypertensive activity, Procedure B (deoxycorticosterone acetate hypertensive rats, systolic pressure); format: in vivo, rat; details: 50 mg/kg orally, DOCA hypertensive female rats
Method: (§1) Some compounds of the invention were tested for anti-hypertensive activity by the following procedures.
Female rats are rendered hypertensive by unilateral nephrectomy and the s.c. implantation of a pellet containing 30 mg of deoxycorticosterone acetate. The drinking water is replaced by normal saline ad lib for the first four weeks following preparation. Blood pressures stabilise at a hypertensive level after 6 weeks. Systolic pressure is measured indirectly before dosing with a test compound using an E and M pneumatic pulse transducer and a Devices MX2 recorder. Groups of 4 rats are dosed orally with suspensions or solutions of the test compound in 0.5% hydroxypropyl-methyl-cellulose 0.9% saline vehicle. Blood pressures are recorded again at 2, 6 and 24 hours and the results, expressed as a percentage of the pre-dose values compared with those of a similar group of rats receiving vehicle alone.

Stress-induced erosion = Stress-induced erosion test (Senay & Levine), anti-ulcer activity; format: in vivo
Method: (§2) Anti-ulcer activity was determined by the stress-induced erosion test of Senay & Levine, Proc. Soc. Exp. Biol. Med., 124, 1221-3(1967) and anti-secretory activity by the test of H. Shay, D. Sun and H. Greenstein, Gastroentarology, 1954, 26, 903-13 as exemplified by Beattie et al J. Med. Chem., 20, 714 (1977). […] However, some compounds show activity in tests for anti-hypertensive activity.

[2] = tested on: Anti-secretory (gastric secretion volume); test: Anti-secretory test (Shay et al); format: in vivo
Method: as §2

[3] = tested on: male spontaneously hypertensive rats; test: Anti-hypertensive activity, Procedure A (spontaneously hypertensive rats, systolic pressure); format: in vivo, rat
Method: as §1
Systolic pressure of male spontaneously hypertensive rats is measured by an indirect technique using the Decker Caudal Plethylsmograph or other appropriate sensor. Groups usually consist of 4 rats. Drugs are usually administered orally. Pressures are usually read prior to drug administration and at 1.5, 4 and 24 hours thereafter. The schedule may be altered depending upon the behaviour of the drug.

Compound | inhibition in vivo at 100 mg/kg (Stress-induced erosion) [%] | Anti-secretory (Shay et al), % change in volume ([2]; Dose 30 mg/kg) [%] | other results
Cc1[nH]cnc1CSc1cccc[n+]1C [Example 1, 1-Methyl-2(4-[5-methylimidazolyl]methylthio)pyridinium chloride] | 69 | -65 | Anti-hypertensive activity (Procedure B) [1]: inactive; Anti-secretory (Shay et al), % change in volume ([2]; Dose 10 mg/kg): -43%
C[n+]1ccccc1SCc1ccccn1 [Example 2, 1-Methyl-2(2-pyridyl)methylthio)pyridinium chloride] | 50 | -31 | 
C[n+]1ccccc1SCc1c[nH]cn1 [Example 3, 1-Methyl-2(4-imidazolylmethylthio)pyridinium chloride] | 67 | -71 | Anti-hypertensive activity (Procedure A) ([3]; 75 mg/kg orally): showed activity
Cc1[nH]cnc1CSc1nccn1C [Example 4, 1-Methyl-2(4-[5-methylimidazolyl]methylthio)imidazole] | 83 | -87 | Anti-hypertensive activity (Procedure B) [1]: active; inhibition in vivo at 30 mg/kg (Stress-induced erosion): 58%; Anti-secretory (Shay et al), % change in volume ([2]; Dose 10 mg/kg): -33%
C[n+]1ccccc1SCc1cccnc1 [Example 5, 1-Methyl-2-(3-pyridylmethylthio)pyridinium chloride] | 58 | -55 | Anti-hypertensive activity (Procedure A) ([3]; 75 mg/kg orally): showed activity
Cc1[nH]cnc1CSc1ccccn1 [Example 6, 2-(4-[5-Methylimidazolyl]methylthio)pyridine] |  |  | Anti-hypertensive activity (Procedure A) ([3]; 75 mg/kg orally): inactive; inhibition in vivo at 3 mg/kg (Stress-induced erosion; Dose 3 mg/kg): 56%; inhibition in vivo at 10 mg/kg (Stress-induced erosion; Dose 10 mg/kg): 68%
Cc1[nH]cnc1CSc1ccncc1 [Example 7, 4-(4-[5-Methylimidazolyl]methylthio)pyridine] | 87 | -60 | Anti-hypertensive activity (Procedure B) [1]: inactive
c1ccc(SCc2c[nH]cn2)nc1 [Example 8, 2-(4-Imidazolylmethylthio)pyridine] | 79 |  | inhibition in vivo at 30 mg/kg (Stress-induced erosion): 70%
C[n+]1ccccc1SCc1ccncc1 [Example 9, 1-Methyl-2-([(4-pyridyl)methyl]thio)pyridinium chloride] |  |  | Anti-hypertensive activity (Procedure A) ([3]; 50 mg/kg orally): showed activity
C[n+]1ccccc1SCc1ccc2ccccc2n1 [Example 10, 1-Methyl-2([(2-quinolyl)methyl]thio)pyridinium chloride] |  |  | Anti-hypertensive activity (Procedure A) ([3]; 50 mg/kg orally): showed activity
C[n+]1ccccc1SCCN1CCCCC1 [Example 11, 1-Methyl-2-[(2-piperidinoethyl)thio]pyridinium chloride] |  | -35 | 

Source: patent publication US4343805A, “Heterocyclic compounds” (John Wyeth & Brother Limited, priority 1978, dated 1982)
